According to patent publication US11926826B2, “Twist signaling inhibitor compositions and methods of using the same” (City of Hope, priority 2016, dated 2024):

How the values were obtained:
[1] = tested on: N-Cadherin mRNA; experiment: qPCR after YTZ3-15 delivery of siTwist in SUM 1315: N-Cadherin; format: cell-based, human; settings: delivered via YTZ3-15; after seven days
Method: (§1) Cell Culture, Transfection, and Stable Cell Line Production. SUM 1315 breast cancer cells were obtained from ATCC (Manassas, VA). Cells were maintained at 37° C., 5% CO2, and 90% humidity in a tissue culture incubator. Media for SUM 1315 cells consisted of a 50-50 mixture of DMEM and F12 media, supplemented with 5 μg/ml insulin, 10 ng/ml EGF, 5% fetal bovine serum, and 1% penicillin/streptomycin. Cells were passaged using 0.25% trypsin (Genesee Scientific, San Diego, CA) every 2-3 days as they reached confluency. […]
(§2) Quantitative PCR. […] RNA quantity and quality was measured and analyzed (with 260/280 nm and 260/230 nm spectra measurements) using a NanoDrop ND-1000 (Thermo Fisher Scientific, Waltham, MA). […] Quantitative RT-PCR was performed in quadruplicate using Maxima SYBR Green Master Mix (Thermo Fisher Scientific, Waltham, MA) in 25 μl reactions. […] Data were analyzed using Bio-Rad iQ5 software using the 2^−ΔΔ^Ct method and normalized to Actin. […]

[2] = tested on: Vimentin mRNA; experiment: qPCR after YTZ3-15 delivery of siTwist in SUM 1315: Vimentin; format: cell-based, human; settings: delivered via YTZ3-15; after one day
Method: as §1, §2

[3] = tested on: SUM 1315 cells; experiment: Wound healing assay, SUM 1315; format: cell-based, human; settings: YTZ3-15 transfection; compared to siQ
Method: Wound Healing Assay. To examine direction cell migration in vitro wound healing assays were performed as described previously. In summary, SUM 1315 cells (parental, eGFP+luc, shScram, shTwistA, and shTwistB) were grown in the conditions described above (2.1) in 6-well tissue culture plates. Once cells reached 80% confluency, a sterile 200 μl pipette tip was used to scratch a line in the monolayer of cells. Images were taken immediately after the scratch and at several time points thereafter using a Nikon TE-2000S microscope and SPOT Advanced software (Diagnostic Instruments, Sterling Heights, MI). Care was taken to always capture images in the same location for each time point. Additionally, SUM 1315 cells were transfected with siQ, siTwistA, or siTwistB using YTZ3-15 at a 50 nM final concentration. Cells were incubated with YTZ3-15+siRNA for 24 hours at 37° C., 5% CO2, and 90% humidity in a tissue culture incubator; the plates were then scratched with the 200 μl pipette tip.

[4] = tested on: TWIST; experiment: TWIST knockdown after Lipofectamine 2000 transfection in A2780R (western blot); format: cell-based; settings: over three days post transfection
Method: Cell Culture. A2780R and all derivatives of Ovcar8 were grown in RPMI 1640 (Genesee Scientific, San Diego, CA) in a tissue culture incubator at 37° C., 5% CO2, and 90% humidity. Growth medium was supplemented with 10% fetal bovine serum and 1% penicillin/streptomycin. Cells were passaged every 2-4 days using 0.25% trypsin (Genesee Scientific). Where indicated, cells were transfected with Lipofectamine 2000 (Thermo Fisher, Waltham, MA) according to the manufacturer's instructions. A2780R cells are a cisplatin resistant derivative of A2780.
Western Blotting. Following siRNA treatment, cells were pelleted and lysed in RIPA buffer. Protein concentration was determined by BCA assay (Thermo Fisher). Following SDS-PAGE, protein was transferred to Amersham PVDF membrane (Genesee Scientific) using a BioRad Trans-Blot SD semi-dry transfer unit. Blots were then blocked in milk for one hour at room temperature or overnight at 4° C. Incubation with primary antibody took place for one hour at room temperature or overnight at 4° C. Antibodies were diluted in 5% milk, with 0.1-0.2% Tween-20. Antibodies used were TWIST 2c1a (Santa Cruz Biotechnology, Dallas, TX) at 1:250-1:500 dilution, β-Actin, A1978 (Sigma Aldrich, St. Louis, MO) at 1:2500-1:5000 dilution; and Horseradish Peroxidase (HRP) conjugated anti-mouse secondary antibodies. […]

With “si419: anti-TWIST siRNA; passenger 5′-GGACAAGCUGAGCAAGAUU-3′ (SEQ ID No: 1), guide 5′-AAUCUUGCUCAGCUUGUCCUU-3′ (SEQ ID No: 2) (listed as RNA, chemistry not fully specified)” the “N-Cadherin mRNA decrease” value [1] was “approximately 90%”, the “Vimentin mRNA level” value [2] was “nearly undetectable” and the directional migration [3] was “decreased directional migration”. For the same substance, the TWIST expression [4] was “completely inhibit TWIST expression”.
